From patent publication EP2451450B1, “Inhibitors of proline racemase enzymes for the treatment of Trypanosoma spp infections” (Institut Pasteur, priority 2009, dated 2011)

Key:
[1] = tested on: T.cruzi CL Brener (clone F11-F5); assay: Vero cell infection by trypomastigotes in the presence of inhibitor (17h), Giemsa scoring; format: cell-based; set-up: key: EI = % infected cells × mean parasites per infected cell; details: Table 5
[2] = tested on: T.cruzi CL Brener (clone F11-F5); assay: as above; format: cell-based; set-up: key to Endocytic index / Endocytic index (EI): EI = % infected cells × mean parasites per infected cell; details: for Mean number of parasites/ cell: 1,5 at 0; for % Infected cells: 38,6 at 0; for Endocytic index: 57 at 0
Method: Vero cells (from green monkey kidney) were seeded at a density of 15x10^6 cells per 25cm^2 culture flasks or at 5 x10^4 cells/well into LabTek slides. The cultures were maintained in RPMI 1640 medium supplemented with 5% fetal bovine serum and kept at 37°C in an atmosphere of 5% CO2. Cell culture-derived trypomastigotes from T.cruzi CL Brener (clone F11-F5) were isolated from the supernatant of Vero cells, which had been previously infected with bloodstream trypomastigotes. Vero cell cultures were infected for 17h at 37°C with cultured trypomastigotes at a 10:1 parasite/cell ratio in the presence or in the absence of increasing doses of freshly made dilutions (3-30 µM) of (E)-4-oxopent-2-enoic acid (OxoPA) and its derivative (E)-5-bromo-4-oxopent-2-enoic acid (Br-OxoPA), previously dissolved in dimethyl sulfoxide (DMSO). For comparison, cultures were seeded with or without 10-1000 µM specific proline racemase inhibitor pyrrole-2-carboxylic acid (PYC) also diluted in DMSO. To verify if proline racemase inhibitors could also exert an effect on the parasite intracellular cycle after 17 hours of parasite-host cell interaction, all the wells were then rinsed three times to eliminate all extracellular parasites and new medium was added to the cultures that were incubated for up to 48 hours with fresh dilutions of the inhibitor compounds. After the different treatments, cultures were washed with PBS, fixed and stained with Giemsa. The numbers of infected host cells and of parasites per infected cell were then scored in at least 400 host cells in independent experiments, run in duplicate. Results are expressed as the percentage of infected cells, the mean number of parasites per infected cell or by the endocytic index (EI) which represents the percentage of infected cells multiplied by the mean number of parasites per infected cell.
Vero cells (from green monkey kidney) were seeded at a density of 15x10^6 cells per 25cm^2 culture flasks or at 5 x10^4 cells/well into LabTek slides. The cultures were maintained in RPMI 1640 medium supplemented with 5% fetal bovine serum and kept at 37°C in an atmosphere of 5% CO2. Cell culture-derived trypomastigotes from T.cruzi CL Brener (clone F11-F5) were isolated from the supernatant of Vero cells, which had been previously infected with bloodstream trypomastigotes. LabTek wells were infected for 17h at 37°C with cultured trypomastigotes at a 10:1 parasite/cell ratio in the presence or in the absence of increasing doses of a freshly made dilutions of 3-30 µM of OxoPA or Br-OxoPA molecules. Cultures were washed, fixed and stained with Giemsa. *At this stage, for comparison, results obtained from cultures seeded with or without 10-1000 µM specific proline racemase inhibitor pyrrole-2-carboxylic acid (PYC) are shown and were obtained from our previous work. Endocytic index was calculated as the % of infected cells X the mean number of intracellular parasites per infected cell. Nd = Not done

[3] = tested on: Vero cells; assay: Toxicity for Vero cells, Trypan Blue exclusion; format: cell-based, green monkey; details: 10 µM, 48h
Method: Finally both the compounds OxoPA and Br-OxoPA were tested at a concentration of 10 µM for toxicity of Vero cells for 48h. Both compounds are not toxic as evaluated by Trypan Blue exclusion (not shown).

[4] = tested on: T. cruzi; assay: Capture ELISA of Vero cultures infected 17h with or without inhibitor; format: cell-based, Trypanosoma cruzi; details: 17h at 37°C, 10:1 parasite/cell ratio; 0-30 mM OxoPA, Br-OxoPA or 10-1000 µM PYC in DMSO; Fig. 9
Method: Flat-bottomed microtiter plates (Nunc, Denmark) were coated overnight at 4°C with rabbit anti-T. cruzi polyclonal antibodies and further blocked for 4 h at room temperature (RT) with 1% BSA, 0.05% Tween 20 in PBS. After washings, lysate samples from infected or control Vero cultures, or from T. cruzi, were then added and incubated at 4°C for 18h. Plates were washed with PBS-Tween and incubated for 2h at RT with polyclonal mouse anti-T. cruzi chronic serum, washed again and incubated for 1 h at RT with HRP-secondary antibodies. […] Optical densities were determined in a spectrophotometer at 450 nm and 650 nm and analyzed using Softmax Pro software.
To confirm the effect of the inhibitors in the initial steps of the host-parasite interaction, cultures were infected for 17h at 37°C at a 10:1 parasite/cell ratio with or without increasing doses of freshly prepared dilutions (0-30 mM) of OxoPA, Br-OxoPA (15), or (10-1000 µM) of PYC, previously dissolved in DMSO and further analyzed by capture ELISA (see methods and Fig. 9). […] Three ongoing studies were performed to determine whether TcPRAC inhibition by the new compounds affects parasite intracellular fate. To do this, host cells were infected for 17 hours then washed and different ligand concentrations (5 mM, 10 mM, 30, 100 mM) were added to the medium. The degree of infection was determined over 48 hours by capture ELISA. The number of parasites per well decreased in a dose-dependent manner (Fig. 7). These experiments indicate that TcPRAC inhibition by OxoPA and Br-OxoPA affects both cellular infection by T. cruzi and parasite development in tissues.

[5] = Inhibitor concentration (µM) 30, Table 5

Row | Structure (SMILES) | Endocytic index (EI) ([1]; Inhibitor concentration (µM) 3) | Mean number of parasites/ cell ([2]; 3 µM) | % Infected cells ([2]; 3 µM) | Endocytic index ([2]; 3 µM) | Mean number of parasites/ cell ([2]; 10 µM) | % Infected cells ([2]; 10 µM) | Endocytic index ([2]; 10 µM) | Mean number of parasites/ cell ([2]; 30 µM) | % Infected cells ([2]; 30 µM) | Endocytic index ([2]; 30 µM) | Endocytic index (EI) ([2]; Inhibitor concentration (µM) 10, Table 5) | Endocytic index (EI) [2, 5] | lower doses necessary to obtain the same endocytic index (EI) as with PYC ([2]; Table 5) [fold] | lower doses necessary to obtain the same endocytic index (EI) as with PYC ([2]; versus 1000 µM PYC) [times] | toxicity of Vero cells [3] | inhibition of cellular infection [4] | Endocytic index (EI) ([1]; Inhibitor concentration (µM) 10)
1 | O=C(O)/C=C/C(=O)CBr [Br-OxoPA, (E)-5-bromo-4-oxopent-2-enoic acid] | 78 | 2,0 | 37,7% | 77,7 | 1,8 | 23,5% | 42,3 | 1,6 | 13,5% | 28,7 | 42 | 29 | 30 | 30 | not toxic | a clear dose dependent inhibition of cellular infection | –
2 | CC(=O)/C=C/C(=O)O [OxoPA, (E)-4-oxopent-2-enoic acid] | 42 | 1,6 | 26,8% | 41,8 | 1,4 | 16,6% | 22,96 | 1,5 | 13,9% | 21,5 | – | 21 | 100 | 100 | not toxic | a clear dose dependent inhibition of cellular infection | 23
